Reference: PMC11591752, “Novel Inhibitory Actions of Neuroactive Steroid [3α,5α]-3-Hydroxypregnan-20-One on Toll-like Receptor 4-Dependent Neuroimmune Signaling” (Biomolecules, 2024)

Target: T1, MD-2 (Homo sapiens, UniProt Q9Y6Y9)
T1 construct: gene LY96; Recombinant human MD-2 (R&D Systems #1787-MD-050/CF), covalently immobilized
T1 sequence (Q9Y6Y9 19-160): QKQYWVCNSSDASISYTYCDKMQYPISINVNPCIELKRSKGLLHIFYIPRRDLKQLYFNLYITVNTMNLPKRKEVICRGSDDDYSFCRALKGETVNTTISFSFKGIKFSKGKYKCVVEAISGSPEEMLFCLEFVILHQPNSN
Assay: SPR competition assay: inhibition of Lipid A binding to immobilized hMD-2

`CC(=O)[C@H]1CC[C@H]2[C@@H]3CC[C@H]4C[C@H](O)CC[C@]4(C)[C@H]3CC[C@]12C` [3α,5α-THP, (3α,5α)-3-hydroxypregnan-20-one] gave a Ki of 4.5 ± 1.7 nM.
